# Measurements published in the supplement of paper PMC10307832.
# Columns and labels:
# Test in all cases: relative viability (nuclei count vs DMSO), 5 days (fraction); higher = more cells survive
# [1] = compound: CN(c1ncccc1CNc1nc(Nc2ccc3c(c2)CC(=O)N3)ncc1C(F)(F)F)S(C)(=O)=O + COc1cc2c(Oc3ccc(NC(=O)C4(C(=O)Nc5ccc(F)cc5)CC4)cc3F)ccnc2cc1OCCCN1CCOCC1 [Foretinib] (partner 0.25 µM)
# Method in brief: (§1)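 The day after seeding in 1536-well plates, lung cancer cell lines were treated by pin tool with a single drug, or with a fixed anchor-drug dose together with five library-drug doses (not always all listed) in √10 steps. After 5 days, a combined fix-and-stain solution (final 0.05% Triton X-100, 1% formaldehyde, 1 ug/ml Hoechst) was added. Nuclei counted on 4× images gave relative viability as treated counts over vehicle counts, reported as the median of duplicate plates.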
# [2] = compound: CN(c1ncccc1CNc1nc(Nc2ccc3c(c2)CC(=O)N3)ncc1C(F)(F)F)S(C)(=O)=O + Cc1nc(NC(=O)N2CCC[C@H]2C(N)=O)sc1-c1ccnc(C(C)(C)C(F)(F)F)c1 [Alpelisib] (partner 2 µM)
# Method in brief: as §1
# [3] = compound: CN(c1ncccc1CNc1nc(Nc2ccc3c(c2)CC(=O)N3)ncc1C(F)(F)F)S(C)(=O)=O + Nc1nc2[nH]cc(CCc3ccc(C(=O)N[C@@H](CCC(=O)O)C(=O)O)cc3)c2c(=O)[nH]1 [Pemetrexed] (partner 0.2 µM)
# Method in brief: as §1
# [4] = compound: CN(c1ncccc1CNc1nc(Nc2ccc3c(c2)CC(=O)N3)ncc1C(F)(F)F)S(C)(=O)=O + O=C(c1cc(Cc2n[nH]c(=O)c3ccccc23)ccc1F)N1CCN(C(=O)C2CC2)CC1 [Olaparib] (partner 8 µM)
# Method in brief: as §1
Cell Line,relative viability ([1]; first compound 0.01 µM),relative viability ([1]; first compound 0.03162 µM),relative viability ([1]; first compound 0.1 µM),relative viability ([1]; first compound 0.3162 µM),relative viability ([1]; first compound 1 µM),relative viability ([2]; first compound 0.01 µM),relative viability ([2]; first compound 0.03162 µM),relative viability ([2]; first compound 0.1 µM),relative viability ([2]; first compound 0.3162 µM),relative viability ([2]; first compound 1 µM),relative viability ([3]; first compound 0.01 µM),relative viability ([3]; first compound 0.03162 µM),relative viability ([3]; first compound 0.1 µM),relative viability ([3]; first compound 0.3162 µM),relative viability ([3]; first compound 1 µM),relative viability ([4]; first compound 0.01 µM),relative viability ([4]; first compound 0.03162 µM),relative viability ([4]; first compound 0.1 µM),relative viability ([4]; first compound 0.3162 µM),relative viability ([4]; first compound 1 µM)
LU99A,0.838,0.873,0.841,0.947,0.929,0.48,0.62,0.525,0.588,0.577,0.25,0.156,0.184,0.203,0.178,0.26,0.305,0.302,0.261,0.236
NCI-H1395,0.985,1.12,0.952,0.849,0.954,0.996,1.08,0.997,1.06,1.06,1,0.882,0.865,0.98,0.909,0.454,0.484,0.492,0.457,0.471
NCI-H460,1.1,1.09,0.892,1.02,0.972,0.519,0.577,0.487,0.443,0.508,0.0683,0.0581,0.0611,0.0605,0.0728,0.443,0.573,0.464,0.464,0.396
201T,1.06,1.09,1.09,0.928,1.02,1.01,0.989,0.971,0.968,0.976,0.336,0.333,0.383,0.34,0.316,0.827,0.887,0.814,0.776,0.779
NCI-H1944,0.771,0.941,0.87,0.938,0.79,0.742,0.955,0.805,0.86,0.918,0.642,0.612,0.646,0.592,0.613,0.402,0.421,0.416,0.436,0.42
NCI-H2405,1.02,1.07,0.976,0.886,0.82,0.837,0.757,0.719,0.72,0.727,1.06,1.01,0.984,0.924,0.832,0.879,0.922,0.78,0.702,0.641
NCI-H1703,0.37,0.3,0.36,0.332,0.349,0.329,0.419,0.321,0.345,0.294,,,,,,0.393,0.388,0.368,0.526,0.389
NCI-H1755,0.88,0.983,0.9,0.832,0.833,0.904,0.946,0.94,0.82,0.848,0.478,0.451,0.426,0.398,0.487,0.909,0.904,0.83,0.791,0.839
